Results from ChEMBL document CHEMBL4177643, “Trisubstituted purine inhibitors of PDGFRα and their antileukemic activity in the human eosinophilic cell line EOL-1” (Bioorg Med Chem, 2017).
pIC50: −log10 of the molar value.

Experiments:
K562 [1] = assay: Cytotoxicity against human K562 cells assessed as growth inhibition after 72 hrs by calcein-AM dye based fluorescence assay; assay type: functional; conditions: K562, 72 h
[2] = biological target: Cyclin-dependent kinase 2/cyclin E1 (Homo sapiens, UniProt P24941); assay: Inhibition of CDK2/cyclin E (unknown origin) expressed in baculovirus infected insect Sf9 cells using histone H1 as substrate in presence of [gamma-33P]ATP
HCC827 [3] = assay: Cell cycle arrest in human HCC827 cells assessed as G1/G2-M ratio at GI50 concentration after 24 hrs by propidium iodide staining-based flow cytometry relative to control; assay type: functional
HCC827 [4] = assay: Cytotoxicity against human HCC827 cells assessed as growth inhibition after 72 hrs by calcein-AM dye based fluorescence assay; assay type: functional; conditions: HCC827, 72 h
BT-474 = assay: Cytotoxicity against human BT474 cells assessed as growth inhibition after 72 hrs by calcein-AM dye based fluorescence assay; assay type: functional; conditions: BT-474, 72 h
K562 [5] = assay: Cell cycle arrest in human K562 cells assessed as G1/G2-M ratio at GI50 concentration after 24 hrs by propidium iodide staining-based flow cytometry relative to control; assay type: functional
MCF7 = assay: Cytotoxicity against human MCF7 cells assessed as growth inhibition after 72 hrs by calcein-AM dye based fluorescence assay; assay type: functional; conditions: MCF7, 72 h
[6] = biological target: Platelet-derived growth factor receptor alpha (Homo sapiens, UniProt P16234); assay: Inhibition of recombinant human N-terminal GST-His6 tagged PDGFRalpha (Q551 to L1089 residues) expressed in Sf9 insect cells using poly(Ala,Glu,Lys,Tyr)6:2:5:1 hydrobromide as substrate in presence of [gamma-33P]ATP
Platelet-derived growth factor receptor alpha, sequence (P16234 whole entry, the tested form may be a part): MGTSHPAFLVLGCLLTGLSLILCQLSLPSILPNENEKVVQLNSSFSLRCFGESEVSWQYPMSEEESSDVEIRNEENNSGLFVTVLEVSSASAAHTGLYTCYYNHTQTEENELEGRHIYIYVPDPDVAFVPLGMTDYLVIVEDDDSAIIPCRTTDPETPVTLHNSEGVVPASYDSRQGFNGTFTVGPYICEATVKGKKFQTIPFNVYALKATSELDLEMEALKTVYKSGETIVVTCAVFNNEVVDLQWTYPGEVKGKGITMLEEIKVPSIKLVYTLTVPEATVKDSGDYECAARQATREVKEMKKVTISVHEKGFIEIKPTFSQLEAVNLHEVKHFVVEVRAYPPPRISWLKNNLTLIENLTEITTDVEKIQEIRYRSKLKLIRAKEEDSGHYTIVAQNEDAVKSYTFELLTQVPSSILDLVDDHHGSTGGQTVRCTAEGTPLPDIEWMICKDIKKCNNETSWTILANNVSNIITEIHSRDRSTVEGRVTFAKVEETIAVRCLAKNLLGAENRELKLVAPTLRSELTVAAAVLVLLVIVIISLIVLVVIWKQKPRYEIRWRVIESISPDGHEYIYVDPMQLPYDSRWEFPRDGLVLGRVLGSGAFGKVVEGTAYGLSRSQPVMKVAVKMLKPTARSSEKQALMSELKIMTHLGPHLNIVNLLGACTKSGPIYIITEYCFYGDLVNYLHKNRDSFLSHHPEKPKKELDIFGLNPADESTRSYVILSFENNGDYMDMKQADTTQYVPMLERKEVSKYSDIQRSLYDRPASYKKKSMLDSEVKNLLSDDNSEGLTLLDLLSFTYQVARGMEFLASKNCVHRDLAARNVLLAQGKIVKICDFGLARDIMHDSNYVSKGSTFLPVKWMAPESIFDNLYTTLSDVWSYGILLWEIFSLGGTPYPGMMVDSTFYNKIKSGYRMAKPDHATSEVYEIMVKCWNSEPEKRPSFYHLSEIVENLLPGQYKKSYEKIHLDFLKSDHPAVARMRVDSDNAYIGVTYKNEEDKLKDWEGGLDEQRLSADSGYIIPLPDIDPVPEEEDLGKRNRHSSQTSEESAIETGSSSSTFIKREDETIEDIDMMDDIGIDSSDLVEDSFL

EOL1 [7] = assay: Cytotoxicity against human EOL-1 cells assessed as growth inhibition after 72 hrs by calcein-AM dye based fluorescence assay; assay type: functional; conditions: EOL1, 72 h
EOL1 [8] = assay: Cell cycle arrest in human EOL-1 cells assessed as G1/G2-M ratio at GI50 concentration after 24 hrs by propidium iodide staining-based flow cytometry relative to control; assay type: functional

pIC50 [2]	pIC50 [6]	SMILES	GI50 (K562 [1])	Ratio (HCC827 [3])	GI50 (HCC827 [4])	GI50 (BT-474)	Ratio (K562 [5])	GI50 (MCF7)	GI50 (EOL1 [7])	Ratio (EOL1 [8])
6.51	< 4.70	CC(C)CCn1cnc2c(NCc3cccc(Cl)c3)nc(N[C@H]3CC[C@H](N)CC3)nc21	3.1 µM	2.5	16.7 µM	6.6 µM	1.85	4.7 µM	1.33 µM	1.77
6.64	6.73	CC(C)=CCn1cnc2c(Nc3cccc(Cl)c3)nc(N[C@H]3CC[C@H](N)CC3)nc21	3.5 µM	2.69	13.5 µM	7 µM	0.75	4.2 µM	0.08 µM	3.1
6.36	6.81	CCCCCCn1cnc2c(Nc3ccc(Cl)cc3)nc(N[C@H]3CC[C@H](N)CC3)nc21	2.1 µM	5.2	11.7 µM	5.5 µM	0.88	4.2 µM	0.44 µM	4.61
6.31	6.82	CC(C)CCn1cnc2c(Nc3ccc(O)cc3)nc(N[C@H]3CC[C@H](N)CC3)nc21	4.6 µM	2.71	14.4 µM	7.7 µM	0.73	3.1 µM	0.03 µM	1.17
6.35	5.83	CCCCn1cnc2c(Nc3cc(OC)cc(OC)c3)nc(N[C@H]3CC[C@H](N)CC3)nc21	2.4 µM	1.35	20.1 µM	15.6 µM	0.82	4.5 µM	0.37 µM	1.3
6.02	5.96	N[C@H]1CC[C@H](Nc2nc(Nc3ccc(Cl)cc3)c3ncn(C4CCCCC4)c3n2)CC1	1.7 µM	2.68	9.1 µM	4.1 µM	0.79	2.3 µM	0.14 µM	2.64
6.30	6.71	CCCCCCn1cnc2c(Nc3cccc(Cl)c3)nc(N[C@H]3CC[C@H](N)CC3)nc21	2.3 µM	7.37	10.2 µM	5.1 µM	0.79	2.7 µM	0.31 µM	1.86
6.68	< 4.70	CCCCn1cnc2c(NCc3cccc(Cl)c3)nc(N[C@H]3CC[C@H](N)CC3)nc21	4.3 µM	0.26	10.6 µM	4.7 µM	1.27	2.2 µM	0.35 µM	0.99

The next lines start with the molecule.

SMILES	pIC50 [2]	pIC50 [6]	GI50 (K562 [1])	Ratio (HCC827 [3])	GI50 (HCC827 [4])	GI50 (BT-474)	Ratio (K562 [5])	GI50 (MCF7)	GI50 (EOL1 [7])	Ratio (EOL1 [8])
CCn1cnc2c(Nc3cccc(Cl)c3)nc(N[C@@H]3CCCC[C@@H]3N)nc21	7.77	< 4.70	4.8 µM	0.29	12.2 µM	5.4 µM	0.48	3.3 µM	0.99 µM	1.28
CCCCn1cnc2c(Nc3ccccc3)nc(N[C@H]3CC[C@H](N)CC3)nc21	6.87	6.80	3.2 µM	0.33	9 µM	4.9 µM	2.29	2.2 µM	0.02 µM	4.93
CC(C)=CCC/C(C)=C/Cn1cnc2c(Nc3cccc(Cl)c3)nc(N[C@H]3CC[C@H](N)CC3)nc21	5.14	5.32	2.2 µM	1.94	18.2 µM	4.3 µM	1.78	3.6 µM	0.59 µM	1.13
CC(C)CCn1cnc2c(Nc3cccc(O)c3)nc(N[C@H]3CC[C@H](N)CC3)nc21	6.29	7.18	7.6 µM	5.6	21.3 µM	14.7 µM	1.22	12.6 µM	0.06 µM	8.94
CCCCCCn1cnc2c(Nc3ccc(O)cc3)nc(N[C@H]3CC[C@H](N)CC3)nc21	6.31	6.34	5.4 µM	0.44	24.7 µM	7.7 µM	0.69	3.5 µM	0.19 µM	2.5
CCCCn1cnc2c(Nc3cccc(Cl)c3)nc(N[C@H]3CC[C@H](N)CC3)nc21	6.88	6.81	2 µM	0.54	7.2 µM	5.1 µM	0.78	2 µM	0.16 µM	10.75
COc1ccc(Nc2nc(N[C@H]3CC[C@H](N)CC3)nc3c2ncn3CCC(C)C)c(OC)c1	5.22	5.50	5.5 µM	23.09	32.9 µM	7.9 µM	1	6.3 µM	0.63 µM	1.65
CCCCCCn1cnc2c(Nc3cc(OC)cc(OC)c3)nc(N[C@H]3CC[C@H](N)CC3)nc21	6.17	5.85	1.9 µM	9.67	9.1 µM	3.7 µM	1.4	3.5 µM	0.38 µM	3.78
CCCCn1cnc2c(Nc3ccc(Cl)cc3)nc(N[C@H]3CC[C@H](N)CC3)nc21	6.93	7.22	2.7 µM	0.28	10.8 µM	7.3 µM	1.52	2.1 µM	0.05 µM	6.43
CC(C)CCn1cnc2c(Nc3ccccc3)nc(N[C@H]3CC[C@H](N)CC3)nc21	6.20	7.02	3.5 µM	0.39	21.7 µM	6.4 µM	1.2	5.4 µM	0.01 µM	1.67
N[C@H]1CC[C@H](Nc2nc(Nc3ccc(O)cc3)c3ncn(C4CCCCC4)c3n2)CC1	5.84	5.91	8.9 µM	9.61	32.5 µM	27.3 µM	0.95	9.6 µM	0.22 µM	2.44
COc1cc(Nc2nc(N[C@H]3CC[C@H](N)CC3)nc3c2ncn3CCC(C)C)cc(OC)c1	6.01	6.54	2.5 µM	1.47	11.2 µM	5.9 µM	1.6	4.5 µM	0.14 µM	3.71
COc1ccc(Cn2cnc3c(Nc4cccc(Cl)c4)nc(N[C@H]4CC[C@H](N)CC4)nc32)cc1	5.26	5.12	2.8 µM	1.94	18.7 µM	8.2 µM	1.43	4.8 µM	0.53 µM	0.96
CC(C)CCn1cnc2c(Nc3ccc(Cl)cc3)nc(N[C@H]3CC[C@H](N)CC3)nc21	6.50	7.23	1.8 µM	3.5	10.2 µM	5.1 µM	0.81	2.7 µM	0.09 µM	7.8
N[C@H]1CC[C@H](Nc2nc(Nc3cccc(Cl)c3)c3ncn(Cc4ccccc4)c3n2)CC1	5.55	5.29	3 µM	10.37	13.7 µM	10.2 µM	1.76	3.6 µM	0.38 µM	0.99
CS(=O)(=O)CCNCc1ccc(-c2ccc3ncnc(Nc4ccc(OCc5cccc(F)c5)c(Cl)c4)c3c2)o1 [LAPATINIB]	–	–	5.7 µM	–	22.3 µM	0.2 µM	–	8.1 µM	0.41 µM	–
